Laboratory results from PubChem BioAssay (NCI).
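Five concentrations, 48 hours, 96-well plates. GI50 is the concentration that inhibits growth by half. TGI denotes the concentration required for complete inhibition of growth.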

Columns and labels:
Assay in all cases: inhibition of tumour cell growth, NCI panel, 48 h
[1] = system: SNB-19 CNS
[2] = system: HOP-62 NSCLC
[3] = system: KM12 colon
[4] = system: SF-539 CNS
[5] = system: NCI-H226 lung
[6] = system: NCI-H460 lung
[7] = system: MALME-3M melanoma
[8] = system: M14 melanoma
[9] = system: SK-MEL-2 melanoma
[10] = system: HT29 colon
[11] = system: OVCAR-8 ovarian
[12] = system: OVCAR-3 ovarian
[13] = system: NCI-H23 lung
[14] = system: NCI/ADR-RES ovarian
[15] = system: TK-10 renal
[16] = system: HCT-116 colon
[17] = system: LOX IMVI melanoma
[18] = system: A498 renal
[19] = system: BT-549 breast
[20] = system: RPMI-8226 leukemia
[21] = system: HCT-15 colon
[22] = system: U251 CNS
[23] = system: SR leukemia
[24] = system: CAKI-1 renal
[25] = system: SF-268 CNS
[26] = system: RXF 393 renal
[27] = system: SW-620 colon
[28] = system: UO-31 renal
[29] = system: SK-MEL-28 melanoma
[30] = system: MDA-MB-231 breast
[31] = system: MCF7 breast
[32] = system: COLO 205 colon
[33] = system: DU-145 prostate
[34] = system: K-562 leukemia
[35] = system: HCC-2998 colon
[36] = system: HOP-92 NSCLC
[37] = system: IGROV1 ovarian
[38] = system: CCRF-CEM leukemia
[39] = system: SK-OV-3 ovarian
[40] = system: SK-MEL-5 melanoma
[41] = system: NCI-H522 lung
[42] = system: SF-295 CNS
[43] = system: A549 NSCLC
[44] = system: EKVX NSCLC
[45] = system: HL-60(TB) leukemia
[46] = system: HS 578T breast
[47] = system: UACC-257 melanoma
[48] = system: OVCAR-4 ovarian
[49] = system: PC-3 prostate
[50] = system: MOLT-4 leukemia
[51] = system: SNB-75 CNS
[52] = system: SN12C renal
[53] = system: 786-0 renal
[54] = system: ACHN renal
[55] = system: OVCAR-5 ovarian

Compound: COc1cccc2cc(N(C)c3ncnc4ccccc34)ccc12
- GI50 [1]: < 0.0132 µM
- TGI [1]: 18.4 µM
- GI50 [2]: < 0.01 µM
- TGI [2]: 15.4 µM
- GI50 [3]: < 0.01 µM
- TGI [3]: 1.07 µM
- GI50 [4]: < 0.01 µM
- GI50 [5]: < 0.01 µM
- TGI [5]: 0.827 µM
- GI50 [6]: < 0.01 µM
- TGI [6]: 10.8 µM
- GI50 [7]: < 0.0484 µM
- TGI [7]: 10.1 µM
- GI50 [8]: < 0.01 µM
- TGI [8]: 13.7 µM
- GI50 [9]: 0.142 µM
- TGI [9]: 14.4 µM
- GI50 [10]: < 0.01 µM
- TGI [10]: 11.8 µM
- GI50 [11]: 0.0172 µM
- TGI [11]: 32.6 µM
- GI50 [12]: < 0.01 µM
- TGI [12]: < 0.0107 µM
- GI50 [13]: < 0.0156 µM
- TGI [13]: 6.26 µM
- GI50 [14]: < 0.01 µM
- TGI [14]: 0.629 µM
- TGI [15]: 16.9 µM
- GI50 [16]: < 0.01 µM
- TGI [16]: 0.521 µM
- GI50 [17]: < 0.0123 µM
- TGI [17]: 13.5 µM
- GI50 [18]: < 0.01 µM
- TGI [18]: 11 µM
- GI50 [19]: 0.0185 µM
- TGI [19]: 6.64 µM
- TGI [20]: 4.99 µM
- GI50 [21]: < 0.01 µM
- TGI [21]: 12.8 µM
- GI50 [22]: < 0.01 µM
- TGI [22]: 11.6 µM
- GI50 [23]: < 0.01 µM
- TGI [23]: 24.8 µM
- GI50 [24]: < 0.01 µM
- TGI [24]: 12.3 µM
- GI50 [25]: 0.0221 µM
- TGI [25]: 14.1 µM
- GI50 [26]: < 0.01 µM
- TGI [26]: 20 µM
- GI50 [27]: < 0.01 µM
- TGI [27]: 17.6 µM
- GI50 [28]: < 0.0287 µM
- TGI [28]: 13.8 µM
- GI50 [29]: 1.35 µM
- TGI [29]: 13.8 µM
- GI50 [30]: 0.025 µM
- TGI [30]: 13 µM
- GI50 [31]: < 0.01 µM
- TGI [31]: 12.3 µM
- GI50 [32]: < 0.01 µM
- TGI [32]: 0.0659 µM
- GI50 [33]: < 0.01 µM
- TGI [33]: 10.4 µM
- GI50 [34]: < 0.01 µM
- TGI [34]: 25.1 µM
- GI50 [35]: 0.0211 µM
- TGI [35]: 5.43 µM
- GI50 [36]: < 0.01 µM
- TGI [36]: 1.03 µM
- GI50 [37]: < 0.01 µM
- TGI [37]: 12.2 µM
- GI50 [38]: < 0.0147 µM
- TGI [38]: 17.8 µM
- GI50 [39]: < 0.01 µM
- TGI [39]: 18.4 µM
- GI50 [40]: < 0.01 µM
- TGI [40]: 0.0374 µM
- GI50 [41]: < 0.01 µM
- TGI [41]: 3.12 µM
- GI50 [42]: < 0.01 µM
- TGI [42]: 11.4 µM
- GI50 [43]: < 0.01 µM
- TGI [43]: 9.11 µM
- GI50 [44]: 0.0772 µM
- TGI [44]: 13.6 µM
- GI50 [45]: < 0.01 µM
- TGI [45]: 0.0486 µM
- GI50 [46]: < 0.01 µM
- TGI [46]: 20.4 µM
- GI50 [47]: 0.283 µM
- TGI [47]: 10.6 µM
- GI50 [48]: < 0.0161 µM
- TGI [48]: 13.5 µM
- GI50 [49]: < 0.01 µM
- TGI [49]: 15.6 µM
- GI50 [50]: 0.0237 µM
- TGI [50]: 15.2 µM
- GI50 [51]: < 0.0105 µM
- TGI [51]: 13 µM
- GI50 [52]: < 0.0159 µM
- TGI [52]: 13.3 µM
- GI50 [53]: < 0.0167 µM
- TGI [53]: 5.9 µM
- GI50 [54]: < 0.01 µM
- TGI [54]: 7.52 µM
- GI50 [55]: 0.0319 µM
- TGI [55]: 17.4 µM
